# Reference: ChEMBL document CHEMBL3871282, “Neo-tanshinlactone D-ring modified novel analogues induce apoptosis in human breast cancer cell via DNA damage” (Bioorg Med Chem, 2017)
# Assays:
# [1] = Cytotoxicity against human MCF7 ER positive, PR positive/negative,HER2 negative cells assessed as cell growth inhibition after 24 hrs by MTT assay; format: functional, cell-based; details: MCF7, 24 h
# [2] = Cytotoxicity against human SKBR3 ER negative, PR negative,HER2 positive cells assessed as cell growth inhibition after 24 hrs by MTT assay; format: functional, cell-based; details: SK-BR-3, 24 h
# [3] = Cytotoxicity against human MDA-MB-231 ER negative, PR negative,HER2 negative cells assessed as cell growth inhibition after 24 hrs by MTT assay; format: functional, cell-based; details: MDA-MB-231, 24 h
# [4] = Cytotoxicity against human HCT116 cells assessed as cell growth inhibition after 24 hrs by MTT assay; format: functional, cell-based; details: HCT-116, 24 h
# [5] = Cytotoxicity against human HepG2 cells assessed as cell growth inhibition after 24 hrs by MTT assay; format: functional, cell-based; details: HepG2, 24 h
# [6] = Cytotoxicity against human HeLa cells assessed as cell growth inhibition after 24 hrs by MTT assay; format: functional, cell-based
# [7] = Cytotoxicity against human WI38 cells assessed as cell growth inhibition after 24 hrs by MTT assay; format: toxicity, cell-based, WI-38
# [8] = Cytotoxicity against human HaCaT cells assessed as cell growth inhibition after 24 hrs by MTT assay; format: toxicity, cell-based
# [9] = Cytotoxicity against human breast cancer cells assessed as cell growth inhibition after 3 days by SRB assay; format: functional, Cancer cell lines
SMILES,IC50 [1] [µM],IC50 [2] [µM],IC50 [3] [µM],IC50 [4] [µM],IC50 [5] [µM],IC50 [6] [µM],IC50 at 24 h [7] [µM],IC50 at 24 h [8] [µM],GI [9] [µM]
O=c1cc(OCc2ccc([N+](=O)[O-])cc2)c2ccc3ccccc3c2[nH]1,0.0665,0.153,0.181,0.0881,41.3,39.7,> 100,> 100,
O=c1cc(OS(=O)(=O)c2ccc(C(F)(F)F)cc2)c2ccc3ccccc3c2[nH]1,120,131,139,150,> 200,> 200,,,
O=C(Oc1cc(=O)[nH]c2c1ccc1ccccc12)c1ccc(F)cc1F,63.4,67.1,70.2,92.8,67.5,68.9,,,
Cc1cccc2c1ccc1c3occ(C)c3c(=O)oc21,,,,,,,,,9.65
CCCC(=O)Oc1cc(=O)[nH]c2c1ccc1ccccc12,11.3,31.1,38.2,23.3,35.2,62,,,
O=C(Oc1cc(=O)[nH]c2c1ccc1ccccc12)c1ccccc1,30.6,42.6,49.3,64,83.1,81,,,
COc1ccc(COc2cc(=O)[nH]c3c2ccc2ccccc23)cc1,0.0487,0.166,0.178,0.0752,42.2,42.7,> 100,> 100,
O=C(/C=C/c1ccc([N+](=O)[O-])cc1)Oc1cc(=O)[nH]c2c1ccc1ccccc12,37.9,38.4,43.9,76.1,99.1,90,,,
CCC(=O)Oc1cc(=O)[nH]c2c1ccc1ccccc12,20.9,30.6,34.5,52,55.1,59.2,,,
O=c1cc(OS(=O)(=O)c2ccc(F)cc2)c2ccc3ccccc3c2[nH]1,132,144,157,168,> 200,> 200,,,
O=c1cc(OCc2nc3ccccc3[nH]2)c2ccc3ccccc3c2[nH]1,0.0383,0.103,0.117,0.0672,44.2,34.9,> 100,> 100,
O=C(Oc1cc(=O)[nH]c2c1ccc1ccccc12)c1ccc([N+](=O)[O-])cc1,45.9,56.4,69.4,84.1,103,85.3,,,
CC(C)CC(=O)Oc1cc(=O)[nH]c2c1ccc1ccccc12,11.9,39.8,57.4,27.6,73.1,45.4,,,
